Data from PubChem BioAssay AID212 (DTP/NCI, 2004).
Several values for one entry are separate records, joined by “and”; a condition that tells them apart may be missing. Equal values may be shown once. Inconclusive results are not listed.

Tested on: BDF1 mice, colon carcinoma 38 sc, T/C %
Assay: NCI In Vivo Anticancer Drug Screen. Data for tumor model Colon Carcinoma 38 (subcutaneous) in B6D2F1 (BDF1) mice
Details: endpoint: median tumor weight (est.), higher = larger tumour
Method in brief: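 Transplantable tumor in mice; compound-treated vs vehicle-dosed controls. Measured survival or tumor size; value = T ÷ C.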

[1] = dose: 6.25 mg/kg/injection, schedule: Q07DX002 (ip), vehicle: saline with Tween-80
[2] = dose: 12.5 mg/kg/injection, schedule: Q07DX002 (ip), vehicle: saline with Tween-80
[3] = dose: 25.0 mg/kg/injection, schedule: Q07DX002 (ip), vehicle: saline with Tween-80
[4] = dose: 50.0 mg/kg/injection, schedule: Q07DX002 (ip), vehicle: saline with Tween-80
[5] = dose: 100.0 mg/kg/injection, schedule: Q07DX002 (ip), vehicle: saline with Tween-80
[6] = dose: 200.0 mg/kg/injection, schedule: Q07DX002 (ip), vehicle: saline with Tween-80
[7] = dose: 25.0 mg/kg/injection, schedule: Q07DX002 (ip), vehicle: saline
[8] = dose: 1.56 mg/kg/injection, schedule: Q07DX002 (ip), vehicle: saline

O=C1CC(C(=O)N2Cc3cc4ccccc4nc3C2)CO1 (centres undefined)
T/C [1]: 72 % of control
T/C [2]: 100 % of control
T/C [3]: 101 % of control
T/C [4]: 122 % of control
T/C [5]: 124 % of control
T/C [6]: 100 % of control

COC(=O)C1(F)C(=O)NC(=O)NC1OC (centres undefined)
T/C (dose: 100.0 mg/kg/injection, schedule: Q07DX002 (ip), vehicle: Klucel (hydroxypropylcellulose) (HPC)): 90 % of control
T/C [5]: 83 % of control
T/C (dose: 200.0 mg/kg/injection, schedule: Q07DX002 (ip), vehicle: Klucel (hydroxypropylcellulose) (HPC)): 72 % of control
T/C [6]: 83 % of control
T/C (dose: 400.0 mg/kg/injection, schedule: Q07DX002 (ip), vehicle: saline with Tween-80): 55 % of control
T/C (dose: 800.0 mg/kg/injection, schedule: Q07DX002 (ip), vehicle: saline with Tween-80): 85 % of control

Nc1nc(=O)n(C2OC(CO)C(O)C2O)cc1F (centres undefined)
T/C (dose: 12.5 mg/kg/injection, schedule: Q07DX002 (ip), vehicle: saline): 124 % of control
T/C [7]: 211 % of control
T/C (dose: 50.0 mg/kg/injection, schedule: Q07DX002 (ip), vehicle: saline): 118 % of control and 235 % of control
T/C (dose: 200.0 mg/kg/injection, schedule: Q07DX002 (ip), vehicle: saline): 60 % of control and 83 % of control

C[CH2][Sn]([CH2]C)([O]S(C)(=O)=O)[O]S(C)(=O)=O
T/C [8]: 18 % of control
T/C (dose: 3.13 mg/kg/injection, schedule: Q07DX002 (ip), vehicle: saline): 78 % of control
T/C (dose: 6.25 mg/kg/injection, schedule: Q07DX002 (ip), vehicle: saline): 108 % of control and 117 % of control and 96 % of control
T/C [7]: 26 % of control

COC1C(/C=C/C(C)=O)OC2OC(C)(C)OC21 (centres undefined)
T/C (dose: 100.0 mg/kg/injection, schedule: Q07DX002 (ip), vehicle: saline): 114 % of control and 98 % of control

O=C1c2cccc3cc([N+](=O)[O-])cc(c23)C(=O)N1CCN1CCCC1
T/C (dose: 3.13 mg/kg/injection, schedule: Q07DX002 (ip), vehicle: saline with Tween-80): 107 % of control
T/C [1]: 71 % of control
T/C [2]: 84 % of control
T/C [3]: 67 % of control

NC(=O)Oc1cccc(OC(N)=O)c1
T/C (dose: 25.0 mg/kg/injection, schedule: Q07DX003 (ip), vehicle: other): 63 % of control
T/C (dose: 50.0 mg/kg/injection, schedule: Q07DX003 (ip), vehicle: other): 103 % of control
T/C (dose: 100.0 mg/kg/injection, schedule: Q07DX003 (ip), vehicle: other): 51 % of control
T/C (dose: 200.0 mg/kg/injection, schedule: Q07DX003 (ip), vehicle: other): 68 % of control
T/C (dose: 400.0 mg/kg/injection, schedule: Q07DX003 (ip), vehicle: other): 75 % of control

COc1cc2c(c(OC)c1OC)-c1ccc(OC)c(=O)cc1[C@@H](NC(C)=O)CC2
T/C (dose: 0.12 mg/kg/injection, schedule: Q07DX002 (ip), vehicle: saline): 105 % of control
T/C (dose: 0.25 mg/kg/injection, schedule: Q07DX002 (ip), vehicle: saline): 121 % of control
T/C (dose: 0.37 mg/kg/injection, schedule: Q07DX002 (ip), vehicle: saline): 119 % of control
T/C (dose: 0.75 mg/kg/injection, schedule: Q07DX002 (ip), vehicle: saline): 69 % of control
T/C (dose: 1.0 mg/kg/injection, schedule: Q07DX002 (ip), vehicle: saline): 159 % of control
T/C (dose: 1.5 mg/kg/injection, schedule: Q07DX002 (ip), vehicle: saline): 87 % of control
T/C [8]: 95 % of control
T/C (dose: 3.0 mg/kg/injection, schedule: Q07DX002 (ip), vehicle: saline): 87 % of control
T/C (dose: 4.0 mg/kg/injection, schedule: Q07DX002 (ip), vehicle: saline): 111 % of control
T/C (dose: 6.0 mg/kg/injection, schedule: Q07DX002 (ip), vehicle: saline): 5 % of control

O=S1(=O)C=C(c2ccccc2)C(c2ccccc2)=C1
T/C [1]: 112 % of control and 97 % of control
T/C [4]: 62 % of control and 80 % of control
T/C [5]: 84 % of control
T/C [6]: 88 % of control
